Values after ≈ are worked out from the molar mass of the structure shown. Where two headings read alike, the source gives them in different places.
Key:
[1] = footnote a: Chemistry Dashboard of the US Environmental Protection Agency; cited from earlier work
[2] = Solubility in water of the active ingredient (Table 1); conditions: for solubility: water
[3] = Density of the active ingredient (Table 1); assay type: physicochemical
[4] = footnote a: Chemistry Dashboard of the US Environmental Protection Agency; cited from earlier work; remark: listed apart in the source
[5] = physchem; conditions: water

Compound | Density [1] | Density [3] [g/mL] | further results
Fc1ccc([C@]2(Cn3cncn3)O[C@H]2c2ccccc2Cl)cc1 (racemic) [Epoxiconazole] | 1.42^a g/mL |  | 
Cc1nn(C)c(F)c1C(=O)Nc1ccccc1C(C)CC(C)C (stereo not drawn) [Penflufen] | 1.18^a g/mL |  | Solubility in Water [2]: 10.9 mg/L (≈ 34.3 µM)
CC[S+]([O-])c1c(C#N)nn(-c2c(Cl)cc(C(F)(F)F)cc2Cl)c1N (stereo not drawn) [Ethiprole] |  | 1.69 | 
CC1(C)C(C=C(Cl)Cl)C1C(=O)OC(C#N)c1ccc(F)c(Oc2ccccc2)c1 (stereo not drawn) [Beta-Cyfluthrin] |  | 1.35 | Solubility in Water [2]: 0.0012 mg/L (≈ 0.00276 µM)
COC(=O)N(OC)c1ccccc1COc1ccn(-c2ccc(Cl)cc2)n1 [Pyraclostrobin] | 1.34^a g/mL |  | Solubility in Water [4]: 26.0^a mg/L
Cc1cc(C(F)(C(F)(F)F)C(F)(F)F)ccc1NC(=O)c1cccc(I)c1C(=O)NC(C)(C)CS(C)(=O)=O [Flubendiamide] | 1.78^a g/mL |  | 
CO/C=C(/C(=O)OC)c1ccccc1COc1cccc(C(F)(F)F)n1 [Picoxystrobin] | 1.28^a g/mL |  | Solubility in Water [4]: 8.30^a mg/L
CC(C1CC1)C(O)(Cn1cncn1)c1ccc(Cl)cc1 (stereo not drawn) [Cyproconazole] | 1.31^a g/mL |  | 
O=C(Nc1ccccc1)N(Cc1ccc(Cl)cc1)C1CCCC1 [Pencycuron] |  | 1.22 | Solubility in Water [2]: 0.3 mg/L (≈ 0.912 µM)
CC12CC1(C)C(=O)N(c1cc(Cl)cc(Cl)c1)C2=O (stereo not drawn) [Procymidone] | 1.43^a g/mL |  | 
Abamectin | 1.28^a g/mL |  | Solubility in Water [4]: 36.4^a mg/L
CN/C(=N\[N+](=O)[O-])NCc1cnc(Cl)s1 [Clothianidin] |  | 1.61 | solubility [2]: 340 µg/mL (≈ 1360 µM)
CS/C(C)=N\OC(=O)N(C)SN(C)C(=O)O/N=C(\C)SC [Thiodicarb] |  | 1.47 | solubility [2]: 22.2 µg/mL (≈ 62.6 µM)
CNC(=O)c1cc(C#N)cc(C)c1NC(=O)c1cc(Br)nn1-c1ncccc1Cl [Cyantraniliprole] | 1.65^a g/mL |  | 
O=C(NCCc1ncc(C(F)(F)F)cc1Cl)c1ccccc1C(F)(F)F [Fluopyram] |  | 1.53 | solubility [2]: 16 µg/mL (≈ 40.3 µM)
Cc1c(F)c(F)c(COC(=O)[C@@H]2[C@H](/C=C(\Cl)C(F)(F)F)C2(C)C)c(F)c1F (racemic) [Tefluthrin] |  | 1.48 | 
CC(C)NC(=O)N1CC(=O)N(c2cc(Cl)cc(Cl)c2)C1=O [Iprodione] |  | 1 | solubility [5]: 6.8 µg/mL (≈ 20.6 µM)
CCCC1COC(Cn2cncn2)(c2ccc(Cl)cc2Cl)O1 (stereo not drawn) [Propiconazole] | 1.39^a g/mL |  | 
CC(c1ccc(C(F)(F)F)nc1)S(C)(=O)=NC#N (stereo not drawn) [Sulfoxaflor] | 1.34^a g/mL |  | 
CO/C=C(/C(=O)OC)c1ccccc1Oc1cc(Oc2ccccc2C#N)ncn1 [Azoxystrobin] | 1.34^a g/mL |  | Solubility in Water [4]: 6.01^a mg/L
OC(Cc1ccccc1Cl)(Cn1nc[nH]c1=S)C1(Cl)CC1 (stereo not drawn) [Prothioconazole] |  | 1.36 | solubility [2]: 300 µg/mL (≈ 871 µM)
CN1COCN(Cc2cnc(Cl)s2)/C1=N\[N+](=O)[O-] [Thiamethoxam] | 1.76^a g/mL |  | Solubility in Water [4]: 1278^a mg/L

Compound | Density [1] | Density [3] [g/mL] | further results
N#Cc1ccccc1NC(=O)c1snc(Cl)c1Cl [Isotianil] | 1.56^a g/mL |  | Solubility in Water [2]: 0.5 mg/L (≈ 1.68 µM)
O=C1C=C(N(Cc2ccc(Cl)nc2)CC(F)F)CO1 [Flupyradifurone] |  | 1.43 | Solubility in Water [2]: 3200 mg/L (≈ 11100 µM)
CNC(=O)Oc1cc(C)c(SC)c(C)c1 [Methiocarb] |  | 1.25 | solubility [2]: 27 µg/mL (≈ 120 µM)
O=[N+]([O-])NC1=NCCN1Cc1ccc(Cl)nc1 [Imidacloprid] |  | 1.54 | Solubility in Water [2]: 610 mg/L (≈ 2390 µM)
COC(=O)Nc1nc2ccccc2[nH]1 [Carbendazim] | 1.39^a g/mL | 1.45 | solubility [5]: 8 µg/mL (≈ 41.8 µM)
CC(C)(C)C(O)(CCc1ccc(Cl)cc1)Cn1cncn1 (stereo not drawn) [Tebuconazole] |  | 1.25 | 
CNC(=O)c1cc(Cl)cc(C)c1NC(=O)c1cc(Br)nn1-c1ncccc1Cl [Chlorantraniliprole] | 1.65^a g/mL |  | 
CNC(=O)/C(=N/OC)c1ccccc1Oc1ccccc1 [Metominostrobin] | 1.13^a g/mL |  | 
CSC1=N[C@@](C)(c2ccccc2)C(=O)N1Nc1ccccc1 [Fenamidone] |  | 1.29 | solubility [5]: 7.8 µg/mL (≈ 25 µM)
COCC(=O)N(c1c(C)cccc1C)C(C)C(=O)OC (stereo not drawn) [Metalaxyl] |  | 1.2 | solubility [2]: 8400 µg/mL (≈ 30100 µM)
CC(C)(C)C(O)C(Oc1ccc(Cl)cc1)n1cncn1 (stereo not drawn) [Triadimenol] |  | 1.27 | solubility [5]: 72 µg/mL (≈ 243 µM)
Spinosad | 1.20^a g/mL |  | Solubility in Water [4]: 295^a mg/L
O=[N+]([O-])c1cc(C(F)(F)F)c(Cl)c([N+](=O)[O-])c1Nc1ncc(C(F)(F)F)cc1Cl [Fluazinam] | 1.80^a g/mL |  | Solubility in Water [4]: 0.68^a mg/L
CON=C(C(=O)OC)c1ccccc1CON=C(C)c1cccc(C(F)(F)F)c1 [Trifloxystrobin] |  | 1.36 | solubility [5]: 0.61 µg/mL (≈ 1.49 µM)
N#Cc1c[nH]cc1-c1cccc2c1OC(F)(F)O2 [Fludioxinil] |  | 1.54 | Solubility in Water [2]: 1.8 mg/L (≈ 7.25 µM)
COCC(=O)N(c1c(C)cccc1C)[C@H](C)C(=O)OC [Metalaxyl-M] | 1.09^a g/mL |  | 
N#Cc1nn(-c2c(Cl)cc(C(F)(F)F)cc2Cl)c(N)c1[S+]([O-])C(F)(F)F (stereo not drawn) [Fipronil] |  | 1.71 | solubility [5]: 3.78 µg/mL (≈ 8.65 µM)
N#C/N=C1\SCCN1Cc1ccc(Cl)nc1 [Thiacloprid] |  | 1.46 | solubility [2]: 184 µg/mL (≈ 728 µM)
CC(C)C1CCC(Cc2ccc(Cl)cc2)C1(O)Cn1cncn1 (stereo not drawn) [Ipconazole] |  | 1.2 | solubility [5]: 9.34 µg/mL (≈ 28 µM)
CO/N=C(/C1=NOCCO1)c1ccccc1Oc1ncnc(Oc2ccccc2Cl)c1F [Fluoxastrobin] |  | 1.42 | solubility [2]: 2.29 µg/mL (≈ 4.99 µM)
Spinetoram | 1.18^a g/mL |  | Solubility in Water [4]: 162^a mg/L
O=c1c2cc(F)ccc2nc(-n2cncn2)n1-c1ccc(Cl)cc1Cl [Fluquinconazole] |  | 1.58 | 

Source: US20210267194A1, “SEED TREATMENT METHOD” (priority 2018, published 2021)
